Experimental data from US8629132B2, “Kinase inhibitors” (Genosco, priority 2009, dated 2014).
“Also recorded” adds a separate entry of the source. Counter-ions that a name gives are not always drawn.

Tests used:
[1] = molecular target: T1, SYK (Homo sapiens, UniProt P43405); experiment: Kinase inhibition assay: SYK; format: biochemical
T1 construct: Purified full-length human SYK, ZAP70, PIM1, PYK2; purchased Carna Biosciences
Description: (§1) Compounds of the present invention were tested for their capacity to inhibit a kinase panel which includes, but are not limited to, spleen tyrosine kinase (SYK), zeta-chain-associated protein kinase 70 (ZAP70), PTK2B protein tyrosine kinase 2 (PYK2), focal adhesion kinase (FAK), provirus integration of maloney kinase 1 (PIM1), rearranged during transfection kinase (RET), Fms-like tyrosine kinase 3 (FLT3), Janus kinase 2 (JAK2), and leucine-rich repeat kinase 2 (LRRK2).
(§2) Inhibition of SYK, ZAP70, PYK2, FAK, PIM1, RET, FLT3, JAK2 and LRRK2 Kinase Activity
(§3) Compounds of the invention were initially diluted to 10 mM in 100% DMSO (CALBIOCHEM™) for storage and made into kinase buffer solution to create a compound concentration ranging from 1 uM and 10 uM. Serial dilutions of compounds of the invention were dispensed into a 96-well plate (GREINER BIOSCIENCES™) at 6 μL each. Purified full-length human SYK, ZAP70, PIM1, PYK2 and truncated human FAK, RET, FLT3, JAK2, and LRRK2 (CARNA BIOSCIENCES™) were diluted in kinase buffer and added to the compound solutions and pre-incubated for 30 minutes at room temperature (1 hour for PYK2). […] The reaction mixture was incubated for 1 hour (2 hours for PYK2). Following the incubation, the stop solution made with EDTA, water, and Lance detection buffer ([…]™) was added (12μL each) to stop phosphorylation. […] The IC50 value of test compound was calculated at Gradpad Prism 5 unless specified otherwise.

[2] = tested on: TNF-α release in THP-1 cells; experiment: SYK independent TNF-α release assay (LPS stimulation); format: cell-based; settings: Homo sapiens, 18-hour incubation
Description: (§4) Compounds of the present invention are tested for their effects on TNF-α release in human acute monocytic leukimia cell line (THP-1) to illustrate potential efficacy at the cellular level. TNF-α is a cytokine involved in systemic inflammation and is a member of a group of cytokines that stimulate the acute phase reaction. The primary role of TNF-α is in the regulation of immune cells. TNF-α is known to induce apoptotic cell death and inflammation and to inhibit early tumorigenesis and viral replication. Dysregulation and, in particular, overproduction of TNF-α have been implicated in a variety of human diseases, autoimmune disease, inflammation, arthritis and cancer.
(§5) Production or release of TNF-α is controlled by type of stimulus to which the cell responds. SYK activity is involved in mediating TNF-α production. When stimulated by IgG, cells increase TNF-α production in a SYK dependent manner (i.e., the SYK dependent pathway). However, when stimulated by lipopolysaccharide (LPS), they produce TNF-α in a SYK independent manner.
For SYK independent TNF-α release assay (i.e., via lipopolysaccharide (LPS)-stimulation), THP-1 cells derived from human monocytic cells were obtained from the American Type Culture Collection (ATCC, Manassas, Va.). This cell line was maintained with an RPMI medium (GIBCO™) containing 10 fetal bovine serum (FBS, GIBCO™) and 0.05 mM 2-mercaptoethanol. The THP-1 cells were seeded at 1×10^5 cells/100 μL/well into 96-well culture plates, and treated with lipopolysaccharide (1 μg/ml), and serially diluted compound was then added. After an 18-hour incubation period at 37° C., supernatants were collected for the determination of the TNF-α level by ELISA, and the remaining cells were subjected to an MTT assay to determine the cytotoxic effects.

[3] = tested on: TNF-α release in THP-1 cells; experiment: SYK dependent TNF-α release assay (IgG stimulation); format: cell-based, human; settings: for inhibition at 0.3 µM / inhibition at 1 µM: Homo sapiens; for percentage inhibition of TNF-α release compared with R406: IgG stimulated release
Description: as §4, §5
Compounds of the invention were tested for their TNF-α release effect on THP-1 cells. For SYK dependent TNF-α release assay (i.e., via IgG stimulation), THP-1 cells derived from human monocytic cells were obtained from the American Type Culture Collection (ATCC, Manassas, Va.). This cell line was maintained with an Roswell Park Memorial Institute (RPMI) medium (GIBCO™) containing 10 fetal bovine serum (FBS; GIBCO™) and 0.05 mM 2-mercaptoethanol. The THP-1 cells were seeded at 1×10^5 cells/100 μL/well into human IgG (10 μg/well, INVITROGENT™)-coated 96 well culture plate, and serially diluted compound was then added. After an 18-hour incubation period at 37° C., supernatants were collected for the determination of the TNF-α level by enzyme-linked immunosorbent assay (ELISA), and the remaining cells were subjected to an MTT (yellow tetrazolium salt) assay to determine the cytotoxic effects of compound.

[4] = molecular target: T2, RET (Homo sapiens, UniProt P07949); experiment: Kinase inhibition assay: RET; format: biochemical
T2 construct: truncated human FAK, RET, FLT3, JAK2, and LRRK2; purchased Carna Biosciences
T2 sequence (P07949 658-1114 limits assumed): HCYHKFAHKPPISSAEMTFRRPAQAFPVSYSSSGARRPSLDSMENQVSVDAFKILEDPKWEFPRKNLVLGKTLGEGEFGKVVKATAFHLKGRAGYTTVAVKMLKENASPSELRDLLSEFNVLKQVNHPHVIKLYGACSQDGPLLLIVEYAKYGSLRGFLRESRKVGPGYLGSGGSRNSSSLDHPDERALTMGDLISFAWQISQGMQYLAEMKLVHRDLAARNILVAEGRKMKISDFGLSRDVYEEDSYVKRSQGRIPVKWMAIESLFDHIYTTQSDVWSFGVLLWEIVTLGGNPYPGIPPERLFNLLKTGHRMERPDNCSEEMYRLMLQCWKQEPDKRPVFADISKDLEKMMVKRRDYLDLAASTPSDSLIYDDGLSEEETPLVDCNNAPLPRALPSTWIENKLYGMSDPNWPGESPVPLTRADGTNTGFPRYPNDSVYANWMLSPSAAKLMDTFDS
Description: as §1, §2, §3

[5] = tested on: MV4-11 cells; experiment: Cell viability assay: FLT3-ITD-positive cells; format: cell-based, human; settings: for IC50: Homo sapiens, MV4-11, 72-hour incubation, read-out: Viability of FLT3-ITD Induced Cancer Cell Line MV-4-11 (IC50 nM)
Description: Compounds of the invention were tested for their effects on inhibition of FLT3-ITD in human acute leukemia cell line (MV4-11). FLT3 is primarily expressed in immature hematopoietic progenitor as well as in mature myeloid cells. It belongs to type III receptor tyrosine kinase (RTK) family including KIT, FMS, and PDGFR. It is activated by binding to FL, which leads to increased kinase activity and activation of downstream signaling pathway including STATS, Ras, and PI3Kinase.
Compounds of the invention were tested for cell viability effect on MV4-11 cells. For cell viability assay, MV4-11 cells expressing human FLT3-ITD were obtained from the American Type Culture Collection (ATCC, Manassas, Va.). This cell line was maintained with an Roswell Park Memorial Institute (RPMI) medium (HyClone™) containing 10 bovine calf serum (BCS; Hyclone™) supplemented iron. The MV4-11 cells were seeded at 2×10^4 cells in 96-well culture plates, and serially diluted compound was then added. After a 72-hour incubation period at 37° C., cell viability was measured using the ATPLite 1 step assay (Perkin-Elmer™) that is based on the quantification of ATP from viable cells. CellTiter Aqueous assay (Promega™) was also performed in parallel as an orthogonal assay. IC50 values were calculated using nonlinear regression and defined as the concentration needed for a 50 reduction in luminescence or absorbance treated versus untreated control cells (Prism™ Software).

[6] = molecular target: T3, FLT3 (Homo sapiens, UniProt P36888); experiment: Kinase inhibition assay: FLT3; format: biochemical
T3 construct: truncated human FAK, RET, FLT3, JAK2, and LRRK2; purchased Carna Biosciences
T3 sequence (P36888 564-993 limits assumed): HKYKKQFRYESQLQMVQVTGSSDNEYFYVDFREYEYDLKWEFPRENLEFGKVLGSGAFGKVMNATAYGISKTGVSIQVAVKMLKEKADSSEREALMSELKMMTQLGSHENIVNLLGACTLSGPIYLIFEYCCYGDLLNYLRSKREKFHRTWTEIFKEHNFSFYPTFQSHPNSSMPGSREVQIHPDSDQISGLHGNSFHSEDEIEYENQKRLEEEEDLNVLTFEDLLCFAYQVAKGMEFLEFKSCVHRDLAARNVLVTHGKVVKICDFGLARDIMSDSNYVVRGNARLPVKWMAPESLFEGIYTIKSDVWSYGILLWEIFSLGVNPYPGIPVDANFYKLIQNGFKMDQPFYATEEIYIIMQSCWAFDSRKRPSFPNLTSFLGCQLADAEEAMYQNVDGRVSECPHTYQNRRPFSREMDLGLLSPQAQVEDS
Description: as §1, §2, §3

[7] = molecular target: JAK2 (Homo sapiens, UniProt O60674); experiment: Kinase inhibition assay: JAK2; format: biochemical; parameters: truncated human FAK, RET, FLT3, JAK2, and LRRK2; purchased Carna Biosciences
Description: as §1, §2, §3

[8] = THP-1 cells, IgG stimulation, 0.3 μM, 18-hour incubation
[9] = THP-1 cells, IgG stimulation, 1 μM, 18-hour incubation

Sequence of JAK2 (O60674 826-1132 limits assumed): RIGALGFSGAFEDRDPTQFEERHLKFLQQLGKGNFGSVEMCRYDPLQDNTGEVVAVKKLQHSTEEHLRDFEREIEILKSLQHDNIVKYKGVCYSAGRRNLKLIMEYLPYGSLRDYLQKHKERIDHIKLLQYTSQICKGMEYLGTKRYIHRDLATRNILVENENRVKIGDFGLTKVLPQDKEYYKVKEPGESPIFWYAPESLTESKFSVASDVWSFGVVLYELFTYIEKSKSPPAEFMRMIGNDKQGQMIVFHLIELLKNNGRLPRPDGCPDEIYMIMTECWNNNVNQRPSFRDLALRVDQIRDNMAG

**Q.** Which IC50 [1] does the source give for `Cc1cc(Nc2nccc(-n3cc(CN4CC[C@@H](O)C4)c(C)n3)n2)cc(C)c1OCCN1CCCC1` [Compound 46, (R)-1-((1-(2-(3,5-dimethyl-4-(2-(pyrrolidin-1-yl)ethoxy)phenyl-amino)pyrimidin-4-yl)-3-methyl-1H-pyrazol-4-yl)methyl)pyrrolidin-3-ol] here?
**A.** 5.9 nM

**Q.** With `Cc1cn(-c2ccnc(Nc3ccc4c(ccn4C)c3)n2)cc1CN1CC(O)C1` [Compound 52, 1-((4-methyl-1-(2-(1-methyl-1H-indol-5-ylamino)pyrimidin-4-yl)-1H-pyrrol-3-yl)methyl)azetidin-3-ol] as the molecule, how does the IC50 [1] read?
**A.** 3.5 nM

**Q.** Which results are given for `Cc1cc(C)cc(Nc2ncc(F)c(-n3cc(CN(C)C)c(C)n3)n2)c1` [Compound 77, 4-(4-((dimethylamino)methyl)-3-methyl-1H-pyrazol-1-yl)-N-(3,5-dimethylphenyl)-5-fluoropyrimidin-2-amine]?
**A.** inhibition at 0.3 µM [2]: 42.2%; inhibition at 1 µM [2]: 36%; inhibition at 0.3 µM [3, 8]: 35.3%; inhibition at 1 µM [3, 9]: 69.5%

**Q.** Which results are given for `Cc1cc(C)cc(Nc2ncc(F)c(-n3cc(C)c(CN(C)C)c3)n2)c1` [Compound 80, 4-(3-((dimethylamino)methyl)-4-methyl-1H-pyrrol-1-yl)-N-(3,5-dimethylphenyl)-5-fluoropyrimidin-2-amine]?
**A.** inhibition at 0.3 µM [2]: 8.2%; inhibition at 1 µM [2]: 12.5%; inhibition at 0.3 µM [3, 8]: 51.5%; inhibition at 1 µM [3, 9]: 91.1%

**Q.** For `COc1cc(Nc2ncc(C)c(-n3cc(C)c(CN4CC(OC(=O)C(C)(C)C)C4)c3)n2)cc(OC)c1OC` [Compound 93, 1-((4-methyl-1-(5-methyl-2-(3,4,5-trimethoxyphenylamino)pyrimidin-4-yl)-1H-pyrrol-3-yl)methyl)azetidin-3-yl pivalate], which IC50 [4] is on record?
**A.** 76.1 nM

**Q.** What about the “inhibition level compared with Vandetinib and Sunitinib” value ([5]; FLT3 ITD induced cancer cell line (MV4-11)) of the same molecule?
**A.** greater than those exhibited by Vandetinib and Sunitinib

**Q.** What about the IC50 [5] of the same molecule?
**A.** 0.6 nM

**Q.** And the IC50 [6]?
**A.** 11.7 nM

**Q.** And the IC50 [7]?
**A.** 219 nM

**Q.** How did the IC50 [4] turn out when `COc1cc(Nc2ncc(C)c(-n3cc(C)c(CN4CCCNCC4)c3)n2)cc(OC)c1OC` [Compound 96, 4-(3-((1,4-diazepan-1-yl)methyl)-4-methyl-1H-pyrrol-1-yl)-5-methyl-N-(3,4,5-trimethoxyphenyl)pyrimidin-2-amine trihydrochloride] was run?
**A.** 10.1 nM

**Q.** What about the IC50 [5] of the same molecule?
**A.** 12.5 nM

**Q.** And the IC50 [6]?
**A.** 0.53 nM

**Q.** What about the IC50 [7] of the same molecule?
**A.** 3.9 nM

**Q.** For `Cc1cc(C)cc(Nc2ncc(F)c(-n3ccc(CN(C)C)c3)n2)c1` [Compound 132, 4-(3-((dimethylamino)methyl)-1H-pyrrol-1-yl)-N-(3,5-dimethylphenyl)-5-fluoropyrimidin-2-amine], which inhibition at 0.3 µM [2] is on record?
**A.** 3.1%

**Q.** And the inhibition at 1 µM [2]?
**A.** 8.2%

**Q.** And the inhibition at 0.3 µM [3, 8]?
**A.** 85.9%

**Q.** And the inhibition at 1 µM [3, 9]?
**A.** 94.5%

**Q.** What about the “percentage inhibition of TNF-α release compared with R406” value ([3]; 0.3 μM) of the same molecule?
**A.** greater that those exhibited by R406

**Q.** With `Cc1cc(C)cc(Nc2ncc(F)c(-n3ccc(CN4CC[C@@H](O)C4)c3)n2)c1` [Compound 133, (R)-1-((1-(2-(3,5-dimethylphenyl-amino)-5-fluoropyrimidin-4-yl)-1H-pyrrol-3-yl)methyl)pyrrolidin-3-ol] as the molecule, how does the inhibition at 0.3 µM [2] read?
**A.** 13.8%

**Q.** What about the inhibition at 1 µM [2] of the same molecule?
**A.** 14.2%

**Q.** What about the inhibition at 0.3 µM [3, 8] of the same molecule?
**A.** 86.3%

**Q.** And the inhibition at 1 µM [3, 9]?
**A.** 99.4%

**Q.** And the “percentage inhibition of TNF-α release compared with R406” value ([3]; 0.3 μM)?
**A.** greater that those exhibited by R406; also recorded: greater percentage inhibition

**Q.** How did the “TNF-α Release Inhibition, IgG stimulation, At 0.3 μM” value [3, 8] turn out when `COc1cc(Nc2ncc(F)c(Nc3ccc4c(n3)NC(=O)C(C)(C)O4)n2)cc(OC)c1OC` [Compound R406, R406, reference compound] was run?
**A.** 49.9%

**Q.** What about the “TNF-α Release Inhibition, IgG stimulation, At 1 μM” value [3, 9] of the same molecule?
**A.** 87.4%

**Q.** `C[C@@H]1C[C@H]2[C@@H]3CCC4=CC(=O)C=C[C@]4(C)[C@@]3(F)[C@@H](O)C[C@]2(C)[C@@]1(O)C(=O)CO` [Dexamethasone, reference compound] was tested. Which inhibition at 1 µM [2] did it give?
**A.** 68.4%

**Q.** How did the IC50 [5] turn out when `CCN(CC)CCNC(=O)c1c(C)[nH]c(/C=C2\C(=O)Nc3ccc(F)cc32)c1C` [Sunitinib, reference compound] was run?
**A.** 3.8 nM
